The values below are quoted from earlier work in article PMC8287861 (Frontiers in Microbiology, 2021).

In brackets after ≈: the same amount, converted by molar mass. Read-outs that look alike come from different tables or passages of the source.

Data set [1] relates to CTX-M-14. Set-up: method as in Tsivkovski et al. (2020). The following applies: CTX-M-14, class A; ref Tsivkovski et al. (2020).
Data set [2] deals with VIM-1. On the set-up: method as in Tsivkovski et al. (2020). The following applies: VIM-1, class B; ref Tsivkovski et al. (2020).
For data set [3], the system named is isogenic strains of P. aeruginosa that produced KPC. Set-up: method as in Lomovskaya et al., 2020a. The following applies: ref Lomovskaya et al., 2020a; for PV50: potency to enhance biapenem activity.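 For PV50: read from a curve of biapenem MIC plotted against inhibitor concentration.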
Data set [4] concerns KPC-2.
For data set [5], the system named is IMP-26. Set-up: method as in Tsivkovski et al. (2020). The note with it: class B, ref Tsivkovski et al. (2020).
The subject of data set [6] is IMP-1. On the set-up: method as in Tsivkovski et al. (2020). The note with it: class B, ref Tsivkovski et al. (2020).
The subject of data set [7] is β-lactamases.
In data set [8] the test system is KPC-producing porin/efflux mutants of K. pneumoniae. The note with it: ref Lomovskaya et al., 2017.
Data set [9] deals with KPC-2. Set-up: method as in Tsivkovski et al. (2020). The note with it: KPC-2, class A; ref Tsivkovski et al. (2020).
Data set [10] concerns SHV-12. The note with it: SHV-12, class A; ref Tsivkovski et al. (2020).
Data set [11] has as its system NDM-1. On the set-up: method as in Tsivkovski et al. (2020). The note with it: class B, ref Tsivkovski et al. (2020).
Data set [12] relates to P99. On the set-up: method as in Tsivkovski et al. (2020). The following applies: P99, class C; ref Tsivkovski et al. (2020).
In data set [13] the test system is CTX-M-15. On the set-up: method as in Tsivkovski et al. (2020). The following applies: CTX-M-15, class A; ref Tsivkovski et al. (2020).
Data set [14] deals with OXA-48. On the set-up: method as in Tsivkovski et al. (2020). The note with it: OXA-48, class D; ref Tsivkovski et al. (2020).
For data set [15], the system named is Pseudomonas aeruginosa. Set-up: method as in Lomovskaya et al. (2021). The following applies: panel reflecting current MIC distribution (N = 500); QPX7728 at 8 μg/ml; ref Lomovskaya et al. (2021).
Data set [16] relates to KPC-producing strains of Klebsiella pneumoniae and blaKPC mutants. Set-up: method as in Nelson et al., 2019. The following applies: ref Nelson et al., 2019.
Data set [17] deals with Pseudomonas aeruginosa. On the set-up: method as in Lomovskaya et al. (2021). The following applies: challenge panel, QPX7728 at 8 μg/ml, ref Lomovskaya et al. (2021).
The test system of data set [18] is carbapenem resistant Acinetobacter baumannii. The following applies: ref Nelson et al., 2020b.
Details of data set [19]: method as in Hecker et al., 2020. The following applies: ref Hecker et al. (2020).
Where [20] appears, read: same mutations (OmpK35, OmpK36, increased efflux).
The mark [21] stands for this setting: 275 clinical isolates, meropenem alone.

`O=C(O)C[C@@H]1CC[C@H](NC(=O)Cc2cccs2)B(O)O1` [Vaborbactam, vaborbactam]: the IC50 is 110 ± 40 nM in data set [1]; over 160000 nM in data set [2]; over 160000 nM in data set [5]; over 160000 nM in data set [6]; 110 ± 30 nM in data set [9]; 56 ± 11 nM in data set [10]. The IC50 in [11] was over 160000 nM; in data set [12] it was 88 ± 38 nM; in data set [13], 92 ± 13 nM. Besides, the PV50 in data set [3] (PAM4126, mexR (MexAB-OprM)) was 64 µg/mL; in data set [3] (PAM4129, nfxB (MexCD-OprJ)) it was 4 µg/mL; in [3] (PAM4132, mexT (MexEF-OprM)) it was over 64 µg/mL; in data set [3] (PAM4150, mexZ (MexXY-OprM)) it was 8 µg/mL; in data set [3] (PAM4224, Wild-type), 8 µg/mL; in data set [3] (PAM4365, MexA::Tet), 0.5 µg/mL. Further, in data set [3] (overproduction of the MexAB-OprM or the MexEF-OprN efflux pumps), the reduction in potency is at least 8 fold. Further, the residence time in [4] (ref Tsivkovski and Lomovskaya, 2019) is about 6 h. The “potency against other class A or class C beta lactamases compared to KPC enzymes” value in data set [7] (fold less potent, ref Tsivkovski and Lomovskaya, 2019) was 10–50 fold. Besides, the “potency to completely inhibit KPC” value in [8] (before porin/efflux mutations) was 0.25 µg/mL (≈ 0.841 µM); in [8] (setting [20]), 64 µg/mL (≈ 215 µM). The “reduction of the potency” value in data set [8] (setting [20]) is 256 fold.

For the compound `NC(=O)[C@@H]1CC[C@@H]2CN1C(=O)N2OS(=O)(=O)O` [Avibactam, avibactam], the IC50 is 1.4 ± 0.4 nM in data set [1]; over 160000 nM in data set [2]; over 160000 nM in data set [5]; over 160000 nM in data set [6]; […] in [14]; […] in data set [9]. Moreover, the 50% inhibitory concentration (IC50) in [10] is 0.61 ± 0.19 nM; in data set [11], over 160000 nM; in data set [12], 26 ± 7 nM; in [13], 0.56 ± 0.25 nM. In addition, the residence time in data set [4] (ref Ehmann et al., 2013) is on record as about 2 h.

`CSCC(=O)N[C@H]1Cc2ccc(F)c(C(=O)O)c2OB1O` [RPX7323]: in [7] (ref Hecker et al. (2020)), the “β-lactamase inhibition (in words)” value is given as “capable of potently inhibiting serine enzymes from classes A-D”.

For the compound `C[C@@H](O)[C@H]1C(=O)N2C(C(=O)O)=C(S[C@@H]3CN[C@H](C(=O)N(C)C)C3)[C@H](C)[C@H]12` [Meropenem, meropenem], the MIC50 in [15] is 0.5 µg/mL (≈ 1.3 µM); in data set [17] (All (N = 290)), 16 µg/mL (≈ 41.7 µM); in data set [17] (MBL (N = 61)), over 64 µg/mL; in [17] (No MBL (N = 229)), 16 µg/mL (≈ 41.7 µM); in [18] (setting [21]), 64 µg/mL (≈ 167 µM). For the same compound, the MIC90 was 16 µg/mL (≈ 41.7 µM) in data set [15]; over 64 µg/mL in data set [17] (All (N = 290)); over 64 µg/mL in data set [17] (MBL (N = 61)); 64 µg/mL (≈ 167 µM) in [17] (No MBL (N = 229)); over 64 µg/mL in data set [18] (setting [21]). The MIC in [16] (KP1252, KPC-3, TEM-1, SHV-11/FL) was 64 µg/mL (≈ 167 µM); in data set [16] (KPM3191, KPC-3:: DDK duplication at aa#831 (KPC-29)), 4 µg/mL (≈ 10.4 µM); in [16] (KPM3192, KPC-3:: D179Y (KPC-31)), 0.5 µg/mL (≈ 1.3 µM); in data set [16] (KPM3200, KPC-3::duplication of EAVI (aa#278)), 64 µg/mL (≈ 167 µM); in data set [16] (KPM3205, KPC-3 ::duplication of KKDY (aa#273)), 16 µg/mL (≈ 41.7 µM); in data set [16] (KPM3210, KPC-2::D179N), 4 µg/mL (≈ 10.4 µM). In addition, the minimum inhibitory concentration (MIC) in data set [16] (KPM3212, deletion of ELNSAI at aa#497) is 1 µg/mL (≈ 2.61 µM); in data set [16] (KPM3213, KPC-2::D179Y (KPC-31), selected from KP1099), 4 µg/mL (≈ 10.4 µM); in [16] (KPM3214, KPC-2::D179A), 2 µg/mL (≈ 5.22 µM); in data set [16] (KPM3493, KPC-3::duplication of EL at aa#164 (KPC-25)), 1 µg/mL (≈ 2.61 µM); in [16] (KPM3494, KPC-3::R167S) it was 32 µg/mL (≈ 83.4 µM); in data set [16] (KPM3495, KPC-3::A175V), 32 µg/mL (≈ 83.4 µM). Further, the MIC was 4 µg/mL (≈ 10.4 µM) in [16] (KPM3511, KPC-3::P174Q) and 8 µg/mL (≈ 20.9 µM) in [16] (KPM3512, KPC-3:: P174L). Also, the figures for the MIC90 of meropenem in [18] (with QPX7728 at 4 μg/ml) and in [18] (with QPX7728 at 8 μg/ml) were 8 µg/mL and 4 µg/mL, respectively. For the same compound, the “increase in meropenem potency” value in data set [18] (with increasing concentrations of QPX7728 (1–16 μg/ml)) is 8–16 fold.

In the case of `COc1ccc2c(c1C(=O)O)OB(O)CC2` [RPX7610], the “metabolic stability (in words)” value in data set [19] was “metabolic liability”. In addition, in data set [7] (ref Hecker et al. (2020)), the “effect of efflux and porin mutations” value is “minimally affected by efflux and porin mutations”; the “β-lactamase inhibition (in words)” value was “potent inhibition of all target β-lactamases”.

Turning to `O=C(NC1CCNCC1)[C@@H]1CC[C@@H]2CN1C(=O)N2OS(=O)(=O)O` [Relebactam, relebactam], the IC50 is 34 ± 10 nM in data set [1]; over 160000 nM in [2]; over 160000 nM in [5]; over 160000 nM in [6]; 330 ± 50 nM in data set [10]; over 160000 nM in data set [11]. The values for the IC50 in data set [12] and in data set [13] were 36 ± 4 nM and 76 ± 3 nM, respectively. For the same compound, in [4] (ref Papp-Wallace et al., 2018), the residence time was 1.5 h.

As to `COc1ccc2c(c1C(=O)O)OB(O)[C@@H](Sc1nncs1)C2` [RPX7546], the “β-lactamase inhibition (in words)” value in [7] (ref Hecker et al. (2020)) was “improved potency against MBLs”.

By IC50 is commonly meant the concentration at which inhibition is half-maximal. What is called MIC50 is an inhibitory concentration at the 50% level, which refers to growth in some studies and to a panel of isolates in others. Usually MIC90 stands for the lowest concentration that inhibits either 90% of growth or 90% of the strains tested, depending on the study. As usually defined, the MIC is the lowest concentration that inhibits growth of the organism.
